Measurements taken from paper PMC11775380, “Discovery of Novel Nav1.7-Selective Inhibitors with the 1H-Indole-3-Propionamide Scaffold for Effective Pain Relief” (Research, 2025).

Experiments:
[1] = system: small (<30 μm) DRG neurons; test: Current-clamp recording of action potential firing (membrane excitability); assay type: cell-based, mouse; settings: 10 μM
Description: To investigate the mechanism of action of WN2-R and facilitate animal model experiments, we used voltage-clamp recording to test the effects of WN2-R on the native Na^+-, K^+-, and Ca^2+-mediated currents in DRG neurons. […] Furthermore, the effects of WN2-R on membrane excitability were examined in small (<30 μm) DRG neurons from mice using current-clamp recordings.
DRG isolation and culture were performed according to our previous report. Briefly, C57BL/6 mice (weight 18 to 20 g, 6 to 8 weeks) were euthanized via cervical dislocation under anesthesia. Lumbar DRGs were isolated from the L4 to L5 segments of the lumbar spinal cord. The DRG neurons were subsequently dissociated through enzymatic digestion with collagenase (0.32 mg/ml) and trypsin (0.15 mg/ml) at 37 °C for 30 min, with intermittent shaking. After centrifugation at 800 rpm for 5 min at room temperature, the cells were seeded onto poly-L-lysine-coated coverslips and cultured in DMEM (Gibco) supplemented with 10% fetal bovine serum (Gibco). […]
For recording Nav currents of DRG neurons, the bath solution contains (in mM) 30 NaCl, 1 MgCl2, 1.8 CaCl2, 5 CsCl, 5 KCl, 25 D-glucose, 5 HEPES, 0.1 CdCl2, and TEA-Cl (pH 7.4 with NaOH), and the pipette solution contains (in mM) 135 CsCl, 10 NaCl, and 5 HEPES (pH 7.4 with CsOH). The Nav current program is recorded following the above method. […]

[2] = biological target: T1, hNav1.2 (Homo sapiens, UniProt Q99250); test: Subtype selectivity, patch clamp; assay type: cell-based; settings: 1 μM
T1 construct: expressed in transfected cells; host or cells: HEK293T
Description: (§1) VGSC inhibitors required credible subtype selectivity to void side effects caused by binding to nontarget subtypes. At a concentration of 1 μM, the inhibitory rates of WN2-R on hNav1.2, hNav1.3, hNav1.4, hNav1.5, mNav1.6, and hNav1.8 were determined (n = 3 to 6, Fig. 7A). […] To further evaluate the drug safety profile, high-dose acute toxicity experiments were conducted. Mice were administered a high dose of 30 mg/kg WN2-R through i.p. administration. The rotarod test, forced-swim test, and open field test were used to explore the effect of high-dose WN2-R on the motor ability of mice (n = 4). The rotarod test evaluated the drug's effect on motor coordination, the forced-swim test examined its impact on the overall motor system, and the open field test assessed the drug's influence on the motor and nervous systems.
(§2) Human embryonic kidney (HEK) 293T (ATCC CRL-3216) and ND7/23 cells (National Collection of Authenticated Cell Cultures SCSP-5026) were cultured under standard conditions (5% CO2, 37 °C) in Dulbecco’s modified Eagle’s medium (DMEM) containing 10% fetal bovine serum and 1% penicillin-streptomycin solution(all from Gibco, Thermo Fisher Scientific, Waltham, MA, USA). When the cells reached 70% to 90% confluence, human Nav1.2 (hNav1.2), human Nav1.3 (hNav1.3), human Nav1.4 (hNav1.4), human Nav1.5 (hNav1.5), and mouse Nav1.6 (mNav1.6) channel plasmids were cotransfected with enhanced green fluorescent protein (eGFP) into HEK293T cells. Additionally, plasmids expressing β1 and β2 subunits tagged with eGFP were cotransfected with the human Nav1.7 (hNav1.7) channel into HEK293T cells. Human Nav1.8 (hNav1.8) was transiently transfected into ND7/23 cells, along with eGFP, using Lipofectamine 2000 (Invitrogen), adhering strictly to the manufacturer’s protocol. For manual patch-clamp experiments, the cells were plated onto glass coverslips and used within 20 to 48 h of transfection.
(§3) Whole-cell patch-clamp recordings were conducted at 25 ± 2 °C, utilizing an EPC 10USB patch-clamp amplifier (HEKA Elektronik, Lambrecht, Germany). Pipettes, with access resistance between 2.0 and 3.0 MΩ, were pulled from borosilicate glass capillary tubes using a 2-step vertical microelectrode puller (PC-10, Narishige Group, Tokyo, Japan). Voltage-clamp recordings were obtained with PatchMaster software v2 × 73 (HEKA Elektronik) 5 min after establishing whole-cell configuration, sampled at 20 kHz, and filtered at 5 kHz. To minimize voltage errors, 80% series resistance compensation was applied. Pipettes were filled with 140 mM CsF, 10 mM NaCl, 1 mM EGTA, and 10 mM HEPES (pH=7.4, adjusted with CsOH). The external solution contained 140 mM NaCl, 2 mM CaCl2, 1 mM MgCl2, 5 mM KCl, 10 mM HEPES, and 10 mM glucose (pH=7.4, adjusted with NaOH). IC50 values were determined in HEK293T or ND7/23 cell lines by voltage clamping at −80 mV, followed by stepping to the V1/2 of inactivation for 8 s to facilitate compound binding.

[3] = biological target: T2, hNav1.4 (Homo sapiens, UniProt P35499); test: Subtype selectivity, patch clamp; assay type: cell-based; settings: read-out: Inhibitory rate on Nav1.4
T2 construct: expressed in transfected cells; host or cells: HEK293T
Description: as §1, §2, §3

[4] = biological target: T3, hNav1.5 (Homo sapiens, UniProt Q14524); test: Subtype selectivity, patch clamp; assay type: cell-based; settings: read-out: Inhibitory rate on Nav1.5
T3 construct: expressed in transfected cells; host or cells: HEK293T
Description: as §1, §2, §3

[5] = biological target: T4, mNav1.6 (Mus musculus, UniProt Q9WTU3); test: Subtype selectivity, patch clamp; assay type: cell-based; settings: 1 μM
T4 construct: expressed in transfected cells; host or cells: HEK293T
Description: as §1, §2, §3

T2 sequence (P35499 whole entry): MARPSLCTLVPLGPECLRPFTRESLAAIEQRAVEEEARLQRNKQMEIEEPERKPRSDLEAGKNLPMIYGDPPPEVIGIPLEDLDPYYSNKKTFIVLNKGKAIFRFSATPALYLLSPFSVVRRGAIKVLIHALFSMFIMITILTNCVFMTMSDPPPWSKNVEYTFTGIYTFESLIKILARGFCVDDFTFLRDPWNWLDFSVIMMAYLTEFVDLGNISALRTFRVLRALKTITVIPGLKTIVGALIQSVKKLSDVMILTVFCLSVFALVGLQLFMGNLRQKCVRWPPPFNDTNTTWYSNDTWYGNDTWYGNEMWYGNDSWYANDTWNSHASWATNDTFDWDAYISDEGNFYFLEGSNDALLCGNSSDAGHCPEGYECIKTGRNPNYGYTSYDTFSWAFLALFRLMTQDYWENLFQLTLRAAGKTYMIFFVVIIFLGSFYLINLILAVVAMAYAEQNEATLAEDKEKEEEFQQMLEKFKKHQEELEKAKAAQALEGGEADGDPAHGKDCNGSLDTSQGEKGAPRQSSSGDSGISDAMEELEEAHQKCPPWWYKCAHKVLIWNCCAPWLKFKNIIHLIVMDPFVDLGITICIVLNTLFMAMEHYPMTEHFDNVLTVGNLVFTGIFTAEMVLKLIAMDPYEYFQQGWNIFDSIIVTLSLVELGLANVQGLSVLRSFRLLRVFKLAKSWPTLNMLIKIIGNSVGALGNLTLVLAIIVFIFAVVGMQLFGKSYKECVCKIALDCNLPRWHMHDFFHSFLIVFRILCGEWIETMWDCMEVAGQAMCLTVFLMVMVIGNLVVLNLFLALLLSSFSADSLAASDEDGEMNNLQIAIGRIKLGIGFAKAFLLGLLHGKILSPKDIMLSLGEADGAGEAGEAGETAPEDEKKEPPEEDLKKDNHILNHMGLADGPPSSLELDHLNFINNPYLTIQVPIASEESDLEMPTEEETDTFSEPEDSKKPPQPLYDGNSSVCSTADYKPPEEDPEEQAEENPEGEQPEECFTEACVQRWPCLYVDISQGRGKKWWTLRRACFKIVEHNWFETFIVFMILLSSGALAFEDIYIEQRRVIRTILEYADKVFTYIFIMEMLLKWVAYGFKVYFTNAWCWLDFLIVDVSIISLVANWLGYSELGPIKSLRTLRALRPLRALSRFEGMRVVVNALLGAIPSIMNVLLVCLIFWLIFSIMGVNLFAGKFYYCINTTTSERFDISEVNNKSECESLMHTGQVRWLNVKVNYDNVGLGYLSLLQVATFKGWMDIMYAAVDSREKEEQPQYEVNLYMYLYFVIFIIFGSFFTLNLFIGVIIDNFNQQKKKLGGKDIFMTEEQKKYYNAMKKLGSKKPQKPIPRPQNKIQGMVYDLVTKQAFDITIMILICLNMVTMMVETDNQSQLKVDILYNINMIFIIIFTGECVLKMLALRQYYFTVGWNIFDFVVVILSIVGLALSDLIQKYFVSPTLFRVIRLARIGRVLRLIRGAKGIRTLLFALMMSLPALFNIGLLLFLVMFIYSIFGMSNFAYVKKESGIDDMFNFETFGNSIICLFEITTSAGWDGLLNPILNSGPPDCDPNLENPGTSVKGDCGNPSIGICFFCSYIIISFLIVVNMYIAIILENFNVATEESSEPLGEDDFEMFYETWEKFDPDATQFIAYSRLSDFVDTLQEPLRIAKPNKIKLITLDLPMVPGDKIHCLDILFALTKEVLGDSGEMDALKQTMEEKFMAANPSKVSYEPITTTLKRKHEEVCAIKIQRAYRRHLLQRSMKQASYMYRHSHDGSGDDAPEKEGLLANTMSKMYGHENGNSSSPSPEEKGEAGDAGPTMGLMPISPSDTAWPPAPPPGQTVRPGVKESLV
T1 sequence (Q99250 whole entry): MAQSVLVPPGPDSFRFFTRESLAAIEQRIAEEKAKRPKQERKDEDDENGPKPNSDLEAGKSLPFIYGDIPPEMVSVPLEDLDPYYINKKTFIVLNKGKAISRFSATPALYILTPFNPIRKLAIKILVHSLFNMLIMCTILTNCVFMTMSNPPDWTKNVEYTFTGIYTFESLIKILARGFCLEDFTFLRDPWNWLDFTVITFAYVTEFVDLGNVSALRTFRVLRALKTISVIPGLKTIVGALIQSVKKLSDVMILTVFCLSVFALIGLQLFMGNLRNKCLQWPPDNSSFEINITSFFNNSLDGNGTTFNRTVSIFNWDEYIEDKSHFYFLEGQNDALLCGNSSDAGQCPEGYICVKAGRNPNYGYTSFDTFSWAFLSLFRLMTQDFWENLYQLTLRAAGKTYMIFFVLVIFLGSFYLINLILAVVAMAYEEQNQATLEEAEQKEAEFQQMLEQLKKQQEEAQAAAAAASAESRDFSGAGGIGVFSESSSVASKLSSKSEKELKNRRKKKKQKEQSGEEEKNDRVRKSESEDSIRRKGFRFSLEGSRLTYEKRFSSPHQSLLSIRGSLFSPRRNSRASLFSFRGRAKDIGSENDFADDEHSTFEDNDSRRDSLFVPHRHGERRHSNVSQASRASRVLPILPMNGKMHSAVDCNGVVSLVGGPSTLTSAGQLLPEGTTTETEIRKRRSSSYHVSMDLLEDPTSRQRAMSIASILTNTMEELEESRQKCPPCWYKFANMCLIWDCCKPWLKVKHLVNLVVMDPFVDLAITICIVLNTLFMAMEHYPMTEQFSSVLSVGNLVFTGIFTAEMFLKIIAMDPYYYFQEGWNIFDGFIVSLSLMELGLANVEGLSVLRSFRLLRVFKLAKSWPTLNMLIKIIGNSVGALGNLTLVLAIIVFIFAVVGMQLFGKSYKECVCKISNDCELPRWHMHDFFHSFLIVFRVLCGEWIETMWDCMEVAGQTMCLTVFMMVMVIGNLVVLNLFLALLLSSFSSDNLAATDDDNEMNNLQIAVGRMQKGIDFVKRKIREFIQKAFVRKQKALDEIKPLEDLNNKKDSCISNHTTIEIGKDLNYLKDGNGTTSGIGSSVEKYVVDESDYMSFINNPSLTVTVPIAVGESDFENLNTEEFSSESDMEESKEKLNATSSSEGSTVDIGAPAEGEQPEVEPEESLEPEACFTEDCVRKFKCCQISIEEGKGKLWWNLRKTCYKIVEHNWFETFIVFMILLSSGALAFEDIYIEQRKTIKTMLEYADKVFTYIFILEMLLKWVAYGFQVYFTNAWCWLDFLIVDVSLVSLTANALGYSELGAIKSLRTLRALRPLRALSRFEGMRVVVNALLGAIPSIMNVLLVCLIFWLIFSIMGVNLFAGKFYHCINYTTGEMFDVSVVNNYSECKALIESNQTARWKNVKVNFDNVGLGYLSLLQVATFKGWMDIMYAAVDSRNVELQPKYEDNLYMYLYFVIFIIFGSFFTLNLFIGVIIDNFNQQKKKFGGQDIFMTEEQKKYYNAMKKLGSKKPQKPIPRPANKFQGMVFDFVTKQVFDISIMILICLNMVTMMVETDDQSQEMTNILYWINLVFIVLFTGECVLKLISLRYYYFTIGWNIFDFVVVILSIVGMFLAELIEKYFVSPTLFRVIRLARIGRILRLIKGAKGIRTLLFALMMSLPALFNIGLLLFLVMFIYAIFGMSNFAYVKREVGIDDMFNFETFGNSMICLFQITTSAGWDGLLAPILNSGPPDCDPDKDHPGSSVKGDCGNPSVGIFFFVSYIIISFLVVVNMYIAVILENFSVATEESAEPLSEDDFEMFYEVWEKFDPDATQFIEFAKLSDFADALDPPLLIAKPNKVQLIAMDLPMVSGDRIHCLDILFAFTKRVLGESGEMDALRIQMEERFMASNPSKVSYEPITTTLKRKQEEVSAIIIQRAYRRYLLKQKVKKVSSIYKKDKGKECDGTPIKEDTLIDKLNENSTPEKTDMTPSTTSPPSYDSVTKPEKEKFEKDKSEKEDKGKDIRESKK

SMILES: Cc1ccc(Cn2cc([C@H](CC(=O)NCCN(C)C)c3ccc(F)cc3)c3ccccc32)cc1 [WN2-R]
- Action potential (AP) firing in response to depolarizing currents [1]: markedly reduced
- Inhibitory rate on hNav1.2 [2]: much lower than that on Nav1.7
- inhibition at 1 µM [3]: 16.3%
- inhibition at 1 µM [4]: 19.1%
- Inhibitory rate on mNav1.6 [5]: much lower than that on Nav1.7
